Experimental data published in patent US20080076757A1, “MEDICINE FOR TREATING GASTROINTESTINAL DISORDER INCLUDING IRRITABLE BOWEL SYNDROME” (priority 2003, published 2008).

Experiments:
depression = experiment: Treatment of recurrent depression in the patient of Example 4; assay type: in vivo, human; settings: after several weeks of the SSRI anti-depressant
[1] = test system: diarrhea-predominant irritable bowel syndrome (D-IBS); experiment: Treatment of spinal-injury patients presenting diarrhea-predominant irritable bowel syndrome (case Examples 1, 3-6)
Method: The complaints include diarrhea-predominant irritable bowel syndrome (D-IBS, awake and sleeping).
The patient is treated with a total daily dose of medicine, which includes 25 mg of tricyclic antidepressant (imipramine hydrochloride) and 300 mg of stool softener (docusate sodium).

muscarinic receptors = experiment: Effect on muscarinic receptors and bowels (statement of the inventor); design: species or system human
[2] = test system: constipation-predominant IBS (C-IBS); settings: patients with C-IBS; cited from earlier work

CNCCC(Oc1ccc(C(F)(F)F)cc1)c1ccccc1.Cl (centres unmarked) [Prozac®]
depression symptoms (depression): begins to obtain relief from the depression symptoms

CN(C)CCCN1c2ccccc2CCc2ccccc21.O=C(O)c1cc2ccccc2c(Cc2c(O)c(C(=O)O)cc3ccccc23)c1O [imipramine pamoate, 5-[3-(dimethylamino)propyl]-10,11-dihydro-5H-dibenzazepine 4,4-methlyenebis-(3-hydroxyl-2-napthoate)]
control of bladder and bowel functions ([1]; Example 3: person, L5-S1 degenerative disc disease, 75 mg/day imipramine pamoate alone, oral, after several days): full control of bladder and bowel functions | adverse effect ([1]; Example 3, imipramine pamoate 75 mg/day without stool softener): develops constipation

CN(C)CCCN1c2ccccc2CCc2ccccc21 [imipramine, 5-[3-(dimethylamino)propyl]-10,11-dihydro-5H-dibenzazepine]
muscarinic receptors affected (muscarinic receptors): primarily affects the M2 and M3 muscarinic receptors

C=C1CCC2(O)C3Cc4ccc(OC5OC(C(=O)O)C(O)C(O)C5O)c5c4C2(CCN3CC2CC2)C1O5 (centres unmarked) [nalmefene glucuronide]
abdominal pain or bloating [2]: did not reduce abdominal pain or bloating | stool consistency [2]: stool consistency was not improved | stool frequency [2]: increased stool frequency | transit time [2]: decreased transit time
